In general, GI50 refers to the concentration that inhibits growth by half. In general, TGI refers to the concentration giving total growth inhibition. Read a low TGI as more potent growth arrest.

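Assay format: 96-well plates, 48-hour exposure. Here, GI50 denotes the concentration required for 50% inhibition of growth. TGI is the concentration that stops growth completely.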 Some results are limits rather than exact numbers.

Data on one compound can be found in PubChem BioAssay (NCI).

Test systems include LOX IMVI melanoma; PC-3 prostate; 786-0 renal; HOP-92 NSCLC; CCRF-CEM leukemia; UACC-62 melanoma; NCI-H522 lung; SN12C renal; SR leukemia; SF-268 CNS.
Common to all, as to experiment: DTP human tumour cell line panel, 48 h

For `O=C(CSC(c1ccccc1)c1ccccc1)N/N=C/c1ccc(Cl)cc1Cl`, the GI50 in the assay on LOX IMVI melanoma is 27.1 µM; in the assay on PC-3 prostate, 31.9 µM; in the assay on 786-0 renal, 40.1 µM; in the assay with HOP-92 NSCLC, 31.1 µM; with CCRF-CEM leukemia it was 31.5 µM; in the assay on UACC-62 melanoma, 21.9 µM. In addition, the GI50 is 12.4 µM in the assay with NCI-H522 lung, 15.7 µM with SN12C renal, 17 µM with SR leukemia and 36.8 µM in the assay with SF-268 CNS. In addition, the TGI in the assay with LOX IMVI melanoma was 97.4 µM; in the assay on PC-3 prostate, greater than 100 µM; in the assay on 786-0 renal it was greater than 100 µM; with HOP-92 NSCLC, 83.4 µM; with CCRF-CEM leukemia, greater than 100 µM; in the assay with UACC-62 melanoma it was greater than 100 µM. In addition, the TGI with NCI-H522 lung is 59.2 µM; in the assay on SN12C renal, 29.9 µM; in the assay on SR leukemia, 38.8 µM; in the assay with SF-268 CNS it was greater than 100 µM.
